The values that follow are results of earlier work, collected in article PMC6920808, “Preclinical Evaluation of UDCA-Containing Oral Formulation in Mice for the Treatment of Wet Age-Related Macular Degeneration” (Pharmaceutics, 2019).

Details of data set [1]: method as in PMID 6479887, PMID 30319399. The following applies: ref [17],[18].
Data set [2] deals with laser-treated rat model. Also on record: method as in PMID 20565307. The conditions noted are these: intraperitoneally injected, ref [4].
Data set [3] relates to retina. Also on record: method as in earlier work. The conditions noted are these: intravitreally injected, dose higher than 5 μg of TUDCA (5 mg/mL), Balb/C mice, ref [33].

`C[C@H](CCC(=O)O)[C@H]1CC[C@H]2[C@@H]3[C@@H](O)C[C@@H]4C[C@H](O)CC[C@]4(C)[C@H]3CC[C@]12C` [UDCA, 3α,7β-dihydroxy-5β-cholanoic acid]: in data set [1], the pKa result is on record as “around 5.0”. In addition, in data set [2], the “CNV size and vascularity” value is “reduction”; the “early VEGF elevation in the retina” value is on record as “effectively suppress”.

In the case of `C[C@H](CCC(=O)NCCS(=O)(=O)O)[C@H]1CC[C@H]2[C@@H]3[C@@H](O)C[C@@H]4C[C@H](O)CC[C@]4(C)[C@H]3CC[C@]12C` [TUDCA, tauroursodeoxycholic acid], the “A- and B-wave amplitudes in the ERG and outer nuclear layer thickness” value in data set [3] is reported as “reduced”. In data set [2], the “CNV size and vascularity” value was “reduction”; the “early VEGF elevation in the retina” value is “effectively suppress”.
